Molecules are shown by their SMILES.

Usually EC50 stands for the concentration at which the effect is half-maximal. Low readings indicate an effect from little substance, high ones a need for much substance.

For data set [1] the following is noted: cited from earlier work.
The subject of data set [2] is human epidermal keratinocytes (HEK). Briefly: Inhibition of human epidermal keratinocyte proliferation (AlamarBlue reduction). Type of data set: cell-based. Particulars: two typical experiments (FIG. 1), 0.1 to 100 microM adenosine, 2 days incubation, AlamarBlue fluorescence. The source says: Cryopreserved human epidermal keratinocytes (HEK) isolated from skin were obtained from TCS Cellworks, Botolph Claydon, Buckingham, MK18 2LR, UK. Cells were maintained in EpiLife, a defined basal medium designed for human keratinocytes supplemented with selected hormones and growth factors (TCS Cellworks). […] Proliferating cultures were trypsinised, harvested, treated with a trypsin inhibitor and resuspended in growth medium. The viable cells were counted then replated into 24 or 96 well cell culture plates at a density of approximately 2,500 cells/cm2. Cells were incubated overnight at 37° C. at 5% CO2 to allow recovery, the spent medium aspirated from the wells and replaced with fresh growth medium in the presence or absence of adenosine. Adenosine was obtained from Sigma-Aldrich and made up as a 10 mM stock solution in DMSO. Serial dilutions were made in the growth medium and added to the cells to give final concentrations ranging from 0.1 to 100 microM, and the cells returned to the incubator for 2 days. AlamarBlue 2% v/v was added to the wells and reduction measured fluorometrically using a Molecular Dynamics BioLumin 9600 microtitre plate reader using excitation wavelength at 530 nm and […] wavelength at 590 nm. Control experiments in which compounds were not added were carried out to examine the normal time-scale of proliferation. […]

`Nc1ncnc2c1ncn2[C@@H]1O[C@H](CO)[C@@H](O)[C@H]1O` [Adenosine]: the “half-life in the circulation” value in data set [1] is given as under 10 s. In addition, the EC50 in data set [2] (Homo sapiens, Keratinocyte, 48 h) turned out to be 1700 nM; in data set [2], 1100 nM.
